Assays:
CYP2C19 = test: clinical; conditions: both, human, in vivo, 20 mg
Text: (§1) This was a single center, open-label, 1-sequence drug-drug interaction study in 32 healthy adult male and female subjects. The study consisted of a 28-day screening period, a 10-day inpatient treatment period, and a follow-up visit. Subjects meeting the study inclusion/exclusion requirements were admitted to the clinical research unit on day −1 and were confined until day 10.
(§2) Blood samples were collected for the assessment of the pharmacokinetics of midazolam and omeprazole.
(§3) The primary pharmacokinetic endpoints were the geometric mean ratios (90% confidence intervals [CIs]) for Cmax, AUC0-t, and AUC0-inf for midazolam and omeprazole on day 9 versus day 1.
(§4) Blood samples were collected for the assessment of the pharmacokinetics of the major metabolites of midazolam (1-OH-midazolam) and omeprazole (5-OH-omeprazole), and for the spiro-oxindole compound. Further secondary pharmacokinetic variables included Cmax, tmax, AUC0-t, AUC0-inf, CL/F, λz, t1/2, and % AUCext for 1-OH-midazolam and 5-OH-omeprazole, on days 1 and 9, and Cmax, morning predose concentrations (Ctrough), average plasma concentration over the dosing interval (Cave), and area under the plasma concentration-time curve over the dosing interval (AUC0-τ) were presented for the spiro-oxindole compound.
(§5) Descriptive statistics (n, mean, geometric mean, standard deviation [SD], % CV, median, minimum, and maximum) were used to summarize plasma midazolam, omeprazole and their metabolites, and the spiro-oxindole compound concentration for all subjects overall at each scheduled time point. Descriptive statistics (as noted above) were also used to summarize plasma omeprazole, 5-OH-omeprazole, and the spiro-oxindole compound concentration for all subjects overall by CYP2C19 genotype at each scheduled time point. Pharmacokinetic parameters were derived by noncompartmental analysis. Descriptive statistics (as noted above) were used to summarize the calculated pharmacokinetic parameters for midazolam, omeprazole and their metabolites, and the spiro-oxindole compound by treatment for all subjects. Descriptive statistics (as noted above) were also used to summarize the calculated pharmacokinetic parameters for omeprazole, 5-OH-omeprazole, and the spiro-oxindole compound by treatment and CYP2C19 genotype. Plots of geometric mean and individual plasma concentrations and of select pharmacokinetic parameters for midazolam, omeprazole and their metabolites and the spiro-oxindole compound at select sampling times were provided. Additionally, plots of individual select pharmacokinetic parameters by CYP2C19 phenotype for omeprazole at select time points were provided.

CYP3A4 = CYP3A4 (Homo sapiens, UniProt P08684); test: Drug-drug interaction study in healthy subjects: midazolam (CYP3A4 substrate) pharmacokinetics (Biological Example 5); conditions: for Tmax / AUC(0-inf) / AUC(0-t) / Cmax: both, human, in vivo; for AUC(0-inf) / AUC(0-t) / Cmax: 3 mg
Chain of CYP3A4 (P08684 whole entry): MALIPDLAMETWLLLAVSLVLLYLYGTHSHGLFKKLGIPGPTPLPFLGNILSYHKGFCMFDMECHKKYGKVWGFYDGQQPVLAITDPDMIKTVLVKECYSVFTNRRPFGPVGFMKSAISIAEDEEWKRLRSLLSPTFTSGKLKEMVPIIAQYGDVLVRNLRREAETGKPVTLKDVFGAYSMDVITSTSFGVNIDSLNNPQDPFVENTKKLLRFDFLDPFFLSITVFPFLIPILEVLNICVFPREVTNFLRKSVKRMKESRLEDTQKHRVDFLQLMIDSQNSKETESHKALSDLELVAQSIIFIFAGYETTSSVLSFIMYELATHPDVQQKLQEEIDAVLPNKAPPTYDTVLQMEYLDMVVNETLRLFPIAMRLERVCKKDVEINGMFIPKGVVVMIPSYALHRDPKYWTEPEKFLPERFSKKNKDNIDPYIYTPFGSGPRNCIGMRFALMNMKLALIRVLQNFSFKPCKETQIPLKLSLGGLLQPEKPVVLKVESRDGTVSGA
Text: as §1, §2, §3, §4, §5

[1] = system: streptozotocin-induced neuropathic pain model; test: Streptozotocin-induced neuropathic pain model, mechanical allodynia (paw withdrawal threshold); format: in vivo, rats; conditions: rats, topical, 30 minutes after the dose
Text: Topical 4% Test Pharmaceutical Composition was compared with lidocaine and diclofenac for relief of mechanical allodynia in the streptozotocin-induced neuropathic pain model in rats.

[2] = 1-OH metabolite after oral midazolam, day 1
[3] = 1-OH metabolite after oral midazolam, day 9

**Q.** `COc1ccc2[nH]c([S+]([O-])Cc3ncc(C)c(OC)c3C)nc2c1` (centres unmarked) [omeprazole] was tested. Which Tmax (CYP2C19) did it give?
**A.** The Tmax was 2.5 h.

**Q.** And the “AUC0-inf (geometric mean)” value (CYP2C19; po)?
**A.** Its value is 633.97 ng·h/mL.

**Q.** What about the “AUC0-t (geometric mean)” value (CYP2C19; po) of the same compound?
**A.** Its value is 556.16 ng·h/mL.

**Q.** What about the “Cmax (geometric mean)” value (CYP2C19; po) of the same compound?
**A.** Its value is 227.04 ng/mL.

**Q.** What about the Tmax (CYP2C19; po) of the same compound?
**A.** Its Tmax is 2 h.

**Q.** What about the AUC(0-inf) (CYP2C19; po, AUC0-inf (geometric mean)) of the same compound?
**A.** The AUC(0-inf) was 635 ng·h/mL.

**Q.** What about the AUC(0-t) (CYP2C19; po, AUC0-t (geometric mean)) of the same compound?
**A.** The AUC(0-t) was 545 ng·h/mL.

**Q.** What about the Cmax (CYP2C19; po, Cmax (geometric mean)) of the same compound?
**A.** Its Cmax is 227 ng/mL.

**Q.** With `OCc1ncc2n1-c1ccc(Cl)cc1C(c1ccccc1F)=NC2` [1-OH-midazolam] as the compound, how does the “tmax (median)” value (CYP3A4; 1-OH metabolite after oral midazolam, both days 1 and 9) read?
**A.** The value was 45 min.

**Q.** What about the “AUC0-inf (geometric)” value (CYP3A4; [2]) of the same compound?
**A.** The value was 16.83 ng·h/mL.

**Q.** What about the “AUC0-t (geometric)” value (CYP3A4; [2]) of the same compound?
**A.** The value was 15.82 ng·h/mL.

**Q.** What about the “Cmax (geometric mean)” value (CYP3A4; [2]) of the same compound?
**A.** The value was 7.33 ng/mL.

**Q.** What about the “t1/2 (geometric mean)” value (CYP3A4; [2]) of the same compound?
**A.** Its value is 4.39 h.

**Q.** What about the “AUC0-t (geometric)” value (CYP3A4; [3]) of the same compound?
**A.** The value was 17.18 ng·h/mL.

**Q.** And the “Cmax (geometric mean)” value (CYP3A4; [3])?
**A.** Its value is 6.67 ng/mL.

**Q.** And the “t1/2 (geometric mean)” value (CYP3A4; [3])?
**A.** Its value is 4.68 h.

**Q.** Which Tmax (CYP3A4) does the source give for `Cc1ncc2n1-c1ccc(Cl)cc1C(c1ccccc1F)=NC2` [midazolam, reference compound] here?
**A.** The Tmax was 45 min.

**Q.** What about the AUC(0-inf) (CYP3A4) of the same compound?
**A.** Its AUC(0-inf) is 40.7 ng·h/mL.

**Q.** What about the AUC(0-t) (CYP3A4) of the same compound?
**A.** The AUC(0-t) was 39.4 ng·h/mL.

**Q.** And the Cmax (CYP3A4)?
**A.** Its Cmax is 14.6 ng/mL.

**Q.** What about the Tmax (CYP3A4; po) of the same compound?
**A.** Its Tmax is 37.8 min.

**Q.** And the AUC(0-inf) (CYP3A4; po)?
**A.** The AUC(0-inf) was 43.8 ng·h/mL.

**Q.** What about the AUC(0-t) (CYP3A4; po) of the same compound?
**A.** The AUC(0-t) was 42.2 ng·h/mL.

**Q.** And the Cmax (CYP3A4; po)?
**A.** The Cmax was 16.9 ng/mL.

**Q.** For `CCN(CC)CC(=O)Nc1c(C)cccc1C` [lidocaine], which “paw withdrawal threshold for the drug-treated paw (mechanical hyperalgesia)” value [1] is on record?
**A.** The value was “no significant increase in threshold”.

**Q.** Which “paw withdrawal threshold for the drug-treated paw (mechanical hyperalgesia)” value [1] does the source give for `O=C(O)Cc1ccccc1Nc1c(Cl)cccc1Cl` [diclofenac] here?
**A.** The value was “no significant increase in threshold”.
